Assay results from US8637507B2, “Bicyclic compounds as inhibitors of diacylglycerol acyltransferase” (Merck Sharp & Dohme Corp., priority 2009, dated 2014).

Target: human DGAT1 enzyme (Homo sapiens (Human), UniProt O75907)
Conditions: read-out: hDGAT1 IC50; human DGAT1 expressed in Sf9 insect cells, microsomes; 2 hours at room temperature
Description: The in vitro assay to identify DGAT1 inhibitors uses human DGAT1 enzyme expressed in Sf9 insect cells prepared as microsomes. The reaction was initiated by the addition of the combined substrates 1,2-dioleoyl-sn-glycerol and [^14C]-palmitoyl-CoA and incubated with test compounds and microsomal membranes for 2 hours at room temperature. The assay was stopped by adding 0.5 mg wheat germ agglutinin beads in assay buffer with 1% Brij-35 and 1% 3-cholamidopropyldimethyl-ammonio-1-propane sulfonate. Plates were sealed with TopSeal and incubated for 18 hours to allow the radioactive triglyceride product to come into proximity with the bead. Plates were read on a TopCount instrument.
Percent inhibition was calculated as the percent of (test compound inhibition minus non-specific binding) relative to (total binding minus non-specific binding). IC50 values were determined by curve fitting the data to a Sigmoidal dose-response in GraphPad Prism utilizing the following equation: Y=A+(B−A)/(1+10^((Log IC50−X))), where A and B are the bottom and top of the curve (highest and lowest inhibition), respectively, and X is the logarithm of concentration.

human DGAT1 enzyme, sequence (O75907 whole entry): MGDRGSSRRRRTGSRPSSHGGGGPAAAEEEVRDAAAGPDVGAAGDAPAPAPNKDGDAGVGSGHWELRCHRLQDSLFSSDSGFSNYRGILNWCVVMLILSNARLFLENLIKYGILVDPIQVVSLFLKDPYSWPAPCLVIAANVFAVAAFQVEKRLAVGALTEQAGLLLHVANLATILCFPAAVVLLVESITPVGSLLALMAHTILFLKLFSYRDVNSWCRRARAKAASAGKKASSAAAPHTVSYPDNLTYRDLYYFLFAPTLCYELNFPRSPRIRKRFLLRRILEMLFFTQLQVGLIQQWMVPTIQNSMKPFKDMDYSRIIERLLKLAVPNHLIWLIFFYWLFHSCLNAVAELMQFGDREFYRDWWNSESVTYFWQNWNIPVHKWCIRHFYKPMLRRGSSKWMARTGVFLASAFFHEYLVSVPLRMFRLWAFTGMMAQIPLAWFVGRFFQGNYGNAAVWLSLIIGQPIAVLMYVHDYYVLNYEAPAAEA

## Cc1cc(C(=O)Nc2ccccc2)c2ccc(-c3ccc(OCC(C)(C)C(=O)O)nc3)cc2n1 [Example B-17, 2,2-dimethyl-3-(5-(2-methyl-4-(phenylcarbamoyl)quinolin-7-yl)pyridin-2-yloxy)propanoic acid]
  IC50: 275 nM
